From US6548511B1, “Insecticidal/acaricidal agents” (Sagami Chemical Research Center, priority 1997, dated 2003)

What was measured:
common cutworm larvae = test: Insecticidal effect on common cutworm larvae; assay type: in vivo; conditions: 500 ppm, wettable powder, cabbage leaf disc soaked, 3rd instar larvae, 25° C., 5 days
Method: A disc of cabbage leaf (6 cm in diameter) was cut out and soaked for 1 minute in a water-diluted solution of the insecticide of the present invention (wettable powder) produced in accordance with the method of Formulation Example 1. After the soaking, the leaf disc was air-dried and set in a plastic cup (7 cm in inner diameter), and 5 common cutworm larvae of 3rd instar were released therein (one concentration, two repetition). The thus released larvae were kept in a constant temperature chamber at 25° C., mortality and agony of the larvae were examined 5 days thereafter, and insecticidal ratio (%) was calculated by defining the larva in agony as ½ dead larvae.

diamondback moth larvae = test: Insecticidal effect on diamondback moth larvae; assay type: in vivo; conditions: 500 ppm, wettable powder, cabbage leaf disc soaked, 3rd instar larvae, 4 days after release
Method: A disc of cabbage leaf (6 cm in diameter) was cut out and soaked for 1 minute in a water-diluted solution of the insecticide of the present invention (wettable powder) produced in accordance with the method of Formulation Example 1. After the soaking, the disc was air-dried and set in a plastic cup (7 cm in inner diameter), and 5 diamondback moth larvae of 3rd instar were released therein (one concentration, two repetition). After 4 days of the release of larvae, mortality and agony of the larvae were examined, and insecticidal ratio (%) was calculated by defining the larvae in agony as ½ dead larvae.

[1] = test system: adzuki bean weevil imagoes; test: Insecticidal effect on adzuki bean weevil imagoes; assay type: in vivo; conditions: 500 ppm, emulsifiable concentrate sprayed, 25° C., 4 days after treatment
[2] = test system: two-spotted spider mite eggs; test: Acaricidal effect on two-spotted spider mite eggs; assay type: in vivo; conditions: 500 ppm, wettable powder sprayed on kidney bean leaf disc, egg-killing ratio 8 days after treatment
Method: A total of 5 two-spotted spider mite female imagoes were released on a disc cut out from a kidney bean leaf (3 cm in diameter). The thus released female imagoes were allowed to lay eggs on the cut leaf for 20 hours and then removed. The acaricide of the present invention (wettable powder) produced in accordance with the method of Formulation Example 1 was diluted with water to a predetermined concentration, and the solution (3.5 ml) was applied on the just described disc (one concentration, two repetition) using a rotary sprayer (manufactured by Mizuho Rika). After 8 days of the treatment, the number of unhatched eggs and the number of hatched imagoes were examined to calculate egg-killing ratio (%).

[3] = test system: two-spotted spider mite female imagoes; test: Acaricidal effect on two-spotted spider mite imagoes; assay type: in vivo; conditions: 500 ppm, wettable powder sprayed on kidney bean leaf disc, 24 hours after treatment
Method: A total of 10 two-spotted spider mite female imagoes were released on a disc cut out from a kidney bean leaf (3 cm in diameter). The acaricide of the present invention (wettable powder) produced in accordance with the method of Formulation Example 1 was diluted with water to a predetermined concentration, and the solution (3.5 ml) was applied on the just described cut leaf (one concentration, two repetition) using a rotary sprayer (manufactured by Mizuho Rika). After 24 hours of the treatment, mortality of the imagoes was examined to calculate acaricidal ratio (%).

green peach aphid larvae = test: Insecticidal effect on green peach aphid larvae; assay type: in vivo; conditions: 500 ppm, emulsifiable concentrate, radish leaf soaked, 25° C., 4th day after treatment
Method: A petiole part of a radish leaf was put into a screw bottle (capacity: 10 ml) filled with water, and 5 to 6 per one leaf of green peach aphid imagoes were inoculated. After the inoculation, the resulting bottle was put into a glass cylinder (3.5 cm in diameter and 15 cm in height, equipped with a mesh cover), and the green peach aphid imagoes were allowed to propagate in a constant temperature chamber at 25° C. for 3 days. After removal of the green peach aphid imagoes from the radish leaf, the resulting leaf was soaked (about 5 seconds) in a water-diluted solution of the insecticide (emulsifiable concentrate) of the present invention and then returned into the glass cylinder (one concentration, two repetition). The cylinder was kept in the constant temperature chamber of 25° C., and the number of aphid individuals on the radish leaf was examined on the 4th day after the treatment to calculate the insecticidal ratio (%) based on the result.

[4] = test system: brown rice planthopper larvae; test: Insecticidal effect on brown rice planthopper larvae; assay type: in vivo; conditions: 500 ppm, emulsifiable concentrate sprayed on rice seedling, 4th instar larvae, 5 days after treatment
Method: A sprouted rice seedling was set in a glass cylinder (3 cm in inner diameter×17 cm in length), and 5 brown rice planthopper larvae of 4th instar were released therein. A water-diluted solution (0.5 ml) of the insecticide of the present invention (emulsifiable concentrate) produced in accordance with the method of Formulation Example 3 was applied to the just described glass cylinder (one concentration, two repetition) using a sprayer (manufactured by Mizuho Rika). After 5 days of the treatment, mortality and agony of the larvae were examined, and insecticidal ratio (%) was calculated by defining the larva in agony as ½ dead larvae.

Structure (SMILES) | melting point [°C] | Insecticidal ratio (%) (common cutworm larvae) | further results
CCC(C)n1c(Nc2cc(C(F)(F)F)ccc2C(F)(F)F)nc(C(F)(F)F)cc1=O (stereo not shown) [Compound No. 58, 2-{2,5-bis(trifluoromethyl)phenyl}amino-3-sec-butyl-6-trifluoromethyl-4(3H)-pyrimidinone] | 165 to 167 |  | 
CCn1c(Nc2ccc(C(F)(F)F)cc2C(F)(F)F)nc(C(F)(F)F)c(Cl)c1=O [Compound No. 34, 2-{2,4-bis(trifluoromethyl)phenyl}amino-5-chloro-3-ethyl-6-trifluoromethyl-4(3H)-pyrimidinone] | 124 |  | 
CCCn1c(Nc2cc(C(F)(F)F)ccc2C(F)(F)F)nc(C(F)(F)F)c(Cl)c1=O [Compound No. 51, 2-{2,5-bis(trifluoromethyl)phenyl}amino-5-chloro-3-propyl-6-trifluoromethyl-4(3H)-pyrimidinone] | 124 to 126 |  | 
CC(C)Cn1c(Nc2cc(C(F)(F)F)ccc2C(F)(F)F)nc(C(F)(F)F)cc1=O [Compound No. 56, 2-{2,5-bis(trifluoromethyl)phenyl}amino-3-isobutyl-6-trifluoromethyl-4(3H)-pyrimidinone] |  | 100 | Insecticidal ratio (%) (diamondback moth larvae): 100%; Insecticidal ratio (%) [1]: 100%; Acaricidal ratio (%) eggs [2]: 100%; Acaricidal ratio (%) imagoes [3]: 100%
CCCCn1c(Nc2cc(C(F)(F)F)ccc2Cl)nc(C(F)(F)F)cc1=O [Compound No. 22] |  |  | Acaricidal ratio (%) eggs [2]: 100%; Acaricidal ratio (%) imagoes [3]: 100%
CCn1c(Nc2cc(Cl)ccc2Cl)nc(C(F)(F)F)cc1=O | 167 to 168 |  | 
O=c1cc(C(F)(F)F)nc(Nc2cc(C(F)(F)F)ccc2C(F)(F)F)n1C1CCCCC1 [Compound No. 64, 2-{2,5-bis(trifluoromethyl)phenyl}amino-3-cyclohexyl-6-trifluoromethyl-4(3H)-pyrimidinone] | 154 to 156 |  | 
CCC(C)n1c(Nc2cc(C(F)(F)F)ccc2C(F)(F)F)nc(C(F)(F)F)c(Cl)c1=O (stereo not shown) [Compound No. 59, 2-{2,5-bis(trifluoromethyl)phenyl}amino-3-sec-butyl-5-chloro-6-trifluoromethyl-4(3H)-pyrimidinone] | 133 to 135 |  | 
CC(C)Cn1c(Nc2cc(C(F)(F)F)ccc2Cl)nc(C(F)(F)F)cc1=O [compound 23, 2-(2-chloro-5-trifluoromethylphenyl)amino-3-isobutyl-6-trifluoromethyl-4(3H)-pyrimidinone] |  | 100 | 
CCn1c(Nc2cc(C(F)(F)F)ccc2C(F)(F)F)nc(C(F)(F)F)cc1=O [Compound No. 47, 2-{2,5-bis(trifluoromethyl)phenyl}amino-3-ethyl-6-trifluoromethyl-4(3H)-pyrimidinone] | 173 to 175 |  | 
Cn1c(Nc2cc(C(F)(F)F)ccc2Cl)nc(C(F)(F)F)cc1=O [Compound No. 20, 2-(2-chloro-5-trifluoromethylphenyl)amino-3-methyl-6-trifluoromethyl-4(3H)-pyrimidinone] |  | 100 | Insecticidal ratio (%) (diamondback moth larvae): 100%
O=c1c(Cl)c(C(F)(F)F)nc(Nc2cc(C(F)(F)F)ccc2C(F)(F)F)n1C1CCCCC1 [Compound No. 65, 2-{2,5-bis(trifluoromethyl)phenyl}amino-5-chloro-3-cyclohexyl-6-trifluoromethyl-4(3H)-pyrimidinone] | 181 to 183 |  | 
C=CCn1c(Nc2cc(C(F)(F)F)ccc2C(F)(F)F)nc(C(F)(F)F)cc1=O [Compound No. 66, 3-allyl-2-{2,5-bis(trifluoromethyl)phenyl}amino-6-trifluoromethyl-4(3H)pyrimidinone] | 116 to 118 |  | 
Cn1c(Nc2cc(C(F)(F)F)ccc2C(F)(F)F)nc(C(F)(F)F)cc1=O [Compound No. 46, 2-{2,5-bis(trifluoromethyl)phenyl}amino-3-methyl-6-trifluoromethyl-4(3H)-pyrimidinone] |  | 100 | Insecticidal ratio (%) (diamondback moth larvae): 100%; Insecticidal ratio (%) (green peach aphid larvae): 100%; Insecticidal ratio (%) [1]: 100%; Acaricidal ratio (%) eggs [2]: 100%; Acaricidal ratio (%) imagoes [3]: 100%; Insecticidal ratio (%) [4]: 100%
Cn1c(Nc2cc(C(F)(F)F)cc(C(F)(F)F)c2)nc(C(F)(F)F)cc1=O [compound 69, 2-{3,5-bis(trifluoromethyl)phenyl}amino-3-methyl-6-trifluoromethyl-4(3H)-pyrimidinone] |  | 100 | Insecticidal ratio (%) (diamondback moth larvae): 100%
